Drawing on US12247032B2, “Substituted pyrazolo[1,5-a]pyrimidines as inhibitors of JAK kinases” (Genentech, Inc., priority 2019, dated 2025), this text covers IC50 and Ki for 11 molecules.

Assay [1] deals with JAK1 (IL-13-stimulated STAT6 phosphorylation in BEAS-2B cells). Briefly: P-STAT6 BEAS-2B+IL-13 cell assay. To be noted: Homo sapiens, BEAS-2B, 1 h, 1 hour compound, IL-13 15 minutes, IC50 by four-parameter fit, read-out: Cellular JAK1 PSTAT6 BEAS2B + IL13. The class given is cell-based, human. The procedure:
In order to study the effect of JAK1 inhibitors in a cell line that is relevant to the cell biology of human asthma, an IL-13-stimulated STAT6 phosphorylation assay in the human lung bronchial epithelial BEAS-2B cell line was developed.
BEAS-2B cells (ATCC® CRL-9609™) were grown in Bronchial Epithelial Growth Medium (BEGM) (Lonza Catalog No. CC-3170; Walkersville, MD; or PromoCell Catalog No. C-21060; Heidelberg, Germany). Test compound stock solutions (0.5 mM in DMSO) were serially diluted 1:2 in DMSO to generate a 10-point concentration curve (at 500× test concentration), which was further diluted by a 50-fold dilution step in BEGM to generate a 10× concentration curve (in 2% DMSO). Cells were plated at 100,000 cells/well in 200 μL of BEGM in 96-well plates and incubated for 48 hours at 37° C. in a humidified incubator. Medium was aspirated from the cells and replaced with 70 μL of fresh BEGM. Diluted test compound (10 μL; or 2% DMSO in assay medium) was added to the cells, and the plates were incubated for 1 hour at 37° C. in a humidified incubator. Twenty μL of 250 ng/mL human recombinant IL-13 (Bio Techne Catalog No. 213-ILB) was then added to the cells and incubated for 15 minutes at 37° C. Medium was aspirated from the cells and 60 μL of ice-cold 1×cell lysis buffer (Cell Signaling Technologies; Catalog No. 9803S) containing 1 mM PMSF was added to the cells. Assay plates were incubated at −80° C. for at least 1 hour. P-STAT6 was measured by coating GAR plates (MSD; Catalog No. L45RA-1) with rabbit anti-human total STAT6 antibody (Cell Signaling Technologies; Catalog No. 9362S), incubating the cell lysates in the coated plates overnight at 4° C., and then detecting with mouse anti-phospho-STAT6 (Tyr641) Clone 16E12 antibody (Millipore; Catalog No. 05-590, custom labeled by MSD with SULFO-tag) using standard MSD plate processing, washing, and detection protocols. Plates were read on the MESO SECTOR S600.
Data analysis was performed by subtracting negative control values from all wells and determining percent of control using the positive control values; the IC50 was determined with a four-parameter logistic fit model as shown in Equation 4.

Assay [2] concerns the target T1, recombinant human JAK1 kinase domain protein (Residues 854-1154) (Homo sapiens, UniProt P23458).
T1 construct: human JAK1 kinase domain protein (Residues 854-1154); purchased Proteros Biostructures GmbH (Martinsried, Germany); host or cells: insect cells
The assay can be described thus: JAK1 biochemical assay (microfluidic mobility shift, peptide phosphorylation). To be noted: 25 μM ATP, 1 nM total JAK1; Ki calculated from Ki app (tight-binding, competitive); read-out: Biochem JAK1 Ki. The method, then: (§1) The in vitro biochemical assays quantify JAK-catalyzed phosphorylation of a synthetic peptide, as detected using a LabChip® EZ Reader II microfluidic mobility shift instrument (PerkinElmer; Waltham, MA). The substrate peptide Y-1B has the sequence 5-FAM-VALVDGYFRLTT-NH2. Y-1B is fluorescently labeled on the N-terminus with 5-FAM (5-carboxyfluorescein) and contains a single tyrosine residue (Y) that can be phosphorylated by JAK activity. The substrate peptide stock is prepared in DMSO at 5 mM. Purified recombinant human JAK1 kinase domain protein (Residues 854-1154) was expressed in insect cells and procured from Proteros Biostructures GmbH (Martinsried, Germany). Recombinant human JAK2 kinase domain protein (Residues 812-1132) was expressed in insect cells and purified at Genentech, Inc. (South San Francisco, CA).
(§2) The kinase reaction mixtures contained 100 mM 4-(2-hydroxyethyl)-1-piperazineethanesulfonic acid (HEPES) buffer (pH 7.2), 10 mM magnesium chloride, 0.015% Brij® 35, 4 mM dithiothreitol, 1.5 μM Y-1B peptide substrate, 25 μM adenosine triphosphate (ATP), 1 nM total JAK1 or 0.2 nM total JAK2, and up to 1000 nM test compound in a final concentration of 2% (volume to volume [v/v]) DMSO. In each titration experiment, test compound was tested in duplicate at each of the twelve concentrations. Blank reactions contained ATP, peptide, and DMSO, but no JAK or test compound, whereas uninhibited control reactions contained ATP, peptide, JAK, and DMSO, but no test compound.
(§3) Peptide plus ATP mixture (24 μL) was added to 1 μL of test compound in DMSO (or DMSO alone). The reactions were initiated by adding 25 μL of JAK enzyme to the inhibitor/peptide/ATP mixture before thoroughly mixing the resultant solution. Reactions were incubated at room temperature (22° C.-23° C.) in a final volume of 50 μL per well in 384-well plates. After a 30-minute incubation, the reactions were stopped by adding 25 μL of 150 mM ethylenediaminetetraacetic acid in 100 mM HEPES buffer (pH 7.2) containing 0.015% Brij 35 to each well.
(§4) In each reaction, the residual Y-1B substrate and the phospho-peptide product generated were separated using the EZ Reader 1 instrument. Electrophoretic separation of molecules of product from molecules of substrate was achieved using downstream and upstream voltages of −500 and −2600 V, respectively, at an operating pressure of −1.3 psi. The 5-FAM group present on both the substrate and product peptides was excited at 488 nm, the fluorescence was detected at 530 nm, and the peak heights were reported.
(§5) The extent (or percent) of conversion of substrate to product was calculated from the corresponding peak heights in the electropherogram using HTS Well Analyzer software, Version 5.2 (PerkinElmer), and the following equation (Equation 1): % conversion=[P[…](S+P)]×100 Equation 1 where S and P represent the peak heights of the substrate and product, respectively. After any baseline signal from blank wells containing no JAK was subtracted from the signal of all test wells, the % conversion data were converted to fractional activity as shown in Equation 2, where νi and νo are the % conversion in the presence and absence of test compound, respectively. The % conversion observed in the uninhibited control reactions containing JAK and DMSO vehicle, but no test compound, was defined to have fractional activity=1 (with no inhibitor present, νi=νo), whereas blank wells with no JAK were defined as having fractional activity=0. Fractional activity was plotted against test compound concentration and the data were fitted using XLfit software (IDBS; Guildford, United Kingdom) to a tight-binding apparent inhibition constant (Ki^app) quadratic equation (see Equation 2) (Williams J W, Morrison J F. The kinetics of reversible tight-binding inhibition. Methods Enymol 1979; 63:437-67), which was used to calculate fractional activity and Ki^app […]

In assay [3] the target is T2, Recombinant human JAK2 kinase domain protein (Residues 812-1132) (Homo sapiens, UniProt O60674).
T2 construct: human JAK2 kinase domain protein (Residues 812-1132); made in house; host or cells: insect cells
T2 sequence (O60674 812-1132): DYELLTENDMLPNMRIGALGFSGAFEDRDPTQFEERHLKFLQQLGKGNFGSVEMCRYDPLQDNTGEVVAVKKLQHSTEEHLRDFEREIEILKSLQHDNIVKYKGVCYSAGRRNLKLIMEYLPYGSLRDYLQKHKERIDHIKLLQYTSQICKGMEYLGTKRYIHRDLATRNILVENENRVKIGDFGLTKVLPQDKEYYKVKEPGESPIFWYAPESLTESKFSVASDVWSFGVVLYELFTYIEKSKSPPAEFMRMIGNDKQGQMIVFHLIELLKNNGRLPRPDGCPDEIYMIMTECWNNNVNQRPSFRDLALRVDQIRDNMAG
Briefly: JAK2 biochemical assay (microfluidic mobility shift, peptide phosphorylation). The note with it: 25 μM ATP, 0.2 nM total JAK2; Ki calculated from Ki app (tight-binding, competitive); read-out: Biochem JAK2 Ki. The procedure:
as §1, §2, §3, §4, §5

T1 sequence (P23458 854-1154): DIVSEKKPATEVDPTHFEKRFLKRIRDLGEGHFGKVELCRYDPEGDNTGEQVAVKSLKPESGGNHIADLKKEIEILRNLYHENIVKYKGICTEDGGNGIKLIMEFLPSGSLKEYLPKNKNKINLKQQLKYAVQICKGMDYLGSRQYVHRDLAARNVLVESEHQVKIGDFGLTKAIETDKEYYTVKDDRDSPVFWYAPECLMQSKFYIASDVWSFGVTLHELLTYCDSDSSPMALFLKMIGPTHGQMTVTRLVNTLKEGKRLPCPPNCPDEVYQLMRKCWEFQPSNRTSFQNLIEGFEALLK

`O=C(Nc1cn(Cc2nnn(C3COC3)n2)nc1-c1cc(Cl)ccc1OC(F)F)c1cnn2cccnc12` [Example 4, N-[3-[5-chloro-2-(difluoromethoxy)phenyl]-1-[[2-(oxetan-3-yl)tetrazol-5-yl]methyl]pyrazol-4-yl]pyrazolo[1,5-a]pyrimidine-3-carboxamide]: the IC50 in assay [1] turned out to be 6.8 nM. Moreover, the Ki in assay [2] was 0.23 nM; in assay [3], 0.12 nM.
As to `O=C(Nc1cn(Cc2nnnn2CCN2CCOCC2)nc1-c1cc(Cl)ccc1OC(F)F)c1cnn2cccnc12` [Example 5, N-[3-[5-chloro-2-(difluoromethoxy)phenyl]-1-[[1-(2-morpholinoethyl)tetrazol-5-yl]methyl]pyrazol-4-yl]pyrazolo[1,5-a]pyrimidine-3-carboxamide], the IC50 in assay [1] stood at 15 nM. Besides, the Ki in assay [2] was 0.4 nM; in assay [3], 0.23 nM.
Regarding `O=C(Nc1cn(Cc2nnn(C3CCN(C4CCOCC4)CC3)n2)nc1-c1cc(Cl)ccc1OC(F)F)c1cnn2cccnc12` [Example 9, N-[3-[5-chloro-2-(difluoromethoxy)phenyl]-1-[[2-(1-tetrahydropyran-4-yl-4-piperidyl)tetrazol-5-yl]methyl]pyrazol-4-yl]pyrazolo[1,5-a]pyrimidine-3-carboxamide], the IC50 in assay [1] was found to be 13 nM. In addition, the Ki in assay [2] is 0.48 nM; in assay [3], 0.24 nM.
As to `O=C(Nc1cn(Cc2nnnn2C2CCNCC2)nc1-c1cc(OC(F)F)ccc1OC(F)F)c1cnn2cccnc12` [Example 24, N-[3-[2,5-bis(difluoromethoxy)phenyl]-1-[[1-(4-piperidyl)tetrazol-5-yl]methyl]pyrazol-4-yl]pyrazolo[1,5-a]pyrimidine-3-carboxamide], the IC50 in assay [1] worked out at 470 nM. The Ki is 0.83 nM in assay [2] and 0.91 nM in assay [3].
As for `NCCN1CCC(n2nnc(Cn3cc(NC(=O)c4cnn5cccnc45)c(-c4cc(OC(F)F)ccc4OC(F)F)n3)n2)CC1` [Example 25, N-[1-[[2-[1-(2-aminoethyl)-4-piperidyl]tetrazol-5-yl]methyl]-3-[2,5-bis(difluoromethoxy)phenyl]pyrazol-4-yl]pyrazolo[1,5-a]pyrimidine-3-carboxamide], the IC50 in assay [1] turned out to be 300 nM. Also, the Ki in assay [2] was 0.77 nM; in assay [3] it was 0.8 nM.
Taken in the same sequence, the figures for `CN1CC(Cn2nnc(Cn3cc(NC(=O)c4cnn5cccnc45)c(-c4cc(OC(F)F)ccc4OC(F)F)n3)n2)C1` [Example 32, N-[3-[2,5-bis(difluoromethoxy)phenyl]-1-[[2-[(1-methylazetidin-3-yl)methyl]tetrazol-5-yl]methyl]pyrazol-4-yl]pyrazolo[1,5-a]pyrimidine-3-carboxamide] were 22 nM, 0.72 nM and 0.62 nM.
Taken in the same sequence, the figures for `CN1CC(Cn2nnnc2Cn2cc(NC(=O)c3cnn4cccnc34)c(-c3cc(OC(F)F)ccc3OC(F)F)n2)C1` [Example 33, N-[3-[2,5-bis(difluoromethoxy)phenyl]-1-[[1-[(1-methylazetidin-3-yl)methyl]tetrazol-5-yl]methyl]pyrazol-4-yl]pyrazolo[1,5-a]pyrimidine-3-carboxamide] were 51 nM, 0.55 nM and 0.56 nM.
On the same counts, the results for `CNCCN1CC(n2nnc(Cn3cc(NC(=O)c4cnn5cccnc45)c(-c4cc(OC(F)F)ccc4OC(F)F)n3)n2)C1` [Example 34, N-[3-[2,5-bis(difluoromethoxy)phenyl]-1-[[2-[1-[2-(methylamino)ethyl]azetidin-3-yl]tetrazol-5-yl]methyl]pyrazol-4-yl]pyrazolo[1,5-a]pyrimidine-3-carboxamide] are 180 nM, 0.4 nM and 0.29 nM.
As for `CSc1ccc(OC(F)F)c(-c2nn(Cc3nnn(CCN)n3)cc2NC(=O)c2cnn3cccnc23)c1` [Example 35, N-[1-[[2-(2-aminoethyl)tetrazol-5-yl]methyl]-3-[2-(difluoromethoxy)-5-methylsulfanyl-phenyl]pyrazol-4-yl]pyrazolo[1,5-a]pyrimidine-3-carboxamide], in assay [1], the IC50 stood at 13 nM. Further, the Ki in assay [2] was 0.37 nM; in assay [3], 0.18 nM.
On the same counts, the results for `CSc1ccc(OC(F)F)c(-c2nn(Cc3nnn(CCN(C)C)n3)cc2NC(=O)c2cnn3cccnc23)c1` [Example 36, N-[3-[2-(difluoromethoxy)-5-methylsulfanyl-phenyl]-1-[[2-[2-(dimethylamino)ethyl]tetrazol-5-yl]methyl]pyrazol-4-yl]pyrazolo[1,5-a]pyrimidine-3-carboxamide] are 17 nM, 0.37 nM and 0.22 nM.
Consider `CN1CCN(CCn2nnc(Cn3cc(NC(=O)c4cnn5cccnc45)c(-c4cc(Cl)ccc4OC(F)F)n3)n2)CC1` [Example 39, N-[3-[5-chloro-2-(difluoromethoxy)phenyl]-1-[[2-[2-(4-methylpiperazin-1-yl)ethyl]tetrazol-5-yl]methyl]pyrazol-4-yl]pyrazolo[1,5-a]pyrimidine-3-carboxamide], for which, in assay [1], the IC50 is 36 nM. In addition, the Ki in assay [2] was 1.3 nM; in assay [3], 0.69 nM.
